Experimental data from patent US10485769B2, “Cholesteryl ester transfer protein (CETP) inhibition in the treatment of cancer” (KING ABDULLAH UNIVERSITY OF SCIENCE AND TECHNOLOGY, priority 2015, dated 2019).
Read-outs that look alike come from different tables or passages of the source.

Legend:
[1] = system: apoptosis-associated proteins in MCF-7 cells; experiment: Western blotting of apoptosis-associated proteins; format: cell-based, human; conditions: 10 μM; for PARP-1 cleavage: 12 and 24 h time points; for expression of DNA damage marker pH2AX: as early as 2 h, remained elevated
Protocol: FIG. 2: Mode of induction in MCF-7 cells after treatment with AP and PL was determined by measuring changes in MOMP and levels of apoptosis-associated proteins. The cells were incubated with 10 μM AP and PL for different time intervals to capture the timeline of apoptosis induction in MCF-7 cells. The changes in MOMP were measured using flow cytometry after treating MCF-7 cells with PL and AP for 1, 2 and 4 h (A). […] F).
Intrinsic apoptosis is activated by the mitochondria where MOMP is reduced and the imbalance between pro- and anti-apoptotic factors results in activation of caspases 9, 3 and 7, cleavage of caspase substrate like PARP-1 (Poly [ADP-ribose] polymerase 1) and fragmentation of DNA. After treatment with 10 μM PL and AP alterations in the ratio of Bax and Bcl2 were observed and pro-caspase 9 levels were reduced (FIGS. 2B and C).

[2] = system: CETP; experiment: CETP protein in mice serum, western blotting and densitometry; format: in vivo; conditions: 2 mg/kg PL, 5 mg/kg AP, compared to Vehicle
Protocol: FIG. 7: Levels of CETP mRNA in tumor (A) and protein in serum (B) in mice tumor samples after treatment with 2 mg/kg PL or 5 mg/kg AP were determined with the RT-PCR and western blotting, respectively. Fold change in expression of serum protein was determined using densitometry analysis of western blots using ImageJ (C). CETP activity in serum was estimated using CETP activity kit (name of kit/manufacturer) (D). Values represent the means±SD of three independent experiments. * where p≤0.05, and ** where p≤0.005.
We performed qRT-PCR using mRNA isolated from mice tumor samples to determine the expression of CETP after treatment with PL and AP (FIG. 7A). […] CETP mRNA is translated into 74 kD protein comprised of 476 amino acids that localizes in plasma. […] CETP protein levels in mice serum samples were determined by western blotting (FIG. 7B).

[3] = system: MCF-7 CETP siRNA cells; experiment: Total cholesterol in CETP knock-out MCF-7 cells, Amplex Red; format: cell-based, human; conditions: 10 μM
Protocol: FIG. 8: Levels of total cholesterol in MCF-7 control (cntl) siRNA and CETP knock-out cells after treatment with 10 μM PL or AP were determined with the Amplex Red assay kit. Values represent the means±SD of three independent experiments.
We measured the amount of cholesterol in CETP knock-out MCF-7 untreated and/or treated with 10 μM AP and PL. […] (FIG. 8).

[4] = Toxicity in MCF-7 xenograft nude mice (survival, body weight, ALT, AST); conditions: for survival of animals: 5 animals per group
Protocol: FIG. 3: Comparative efficacy and toxicity study in MCF-7 xenograft nude mouse model of BC. The efficacy of single i.p. injection of vehicle, PL (2 mg/kg) and AP (5 mg/kg) in 5 mice in each group was compared over a period of 21 days.
MCF-7 tumors grown up to 300 mm3 in four nude mice were harvested, dissected into 1-2 mm3 fragments and implanted into the study group for further testing. Nude mice (with tumor volume of 150 mm3) were treated with 25% Polyethylene glycol (PEG) 400 as vehicle, 2 mg/kg PL and 5 mg/kg AP for 21 days during which tumor volume, body weight and, at the time of sacrifice, tumor weight was measured.

[5] = system: BJ CETP siRNA cells; experiment: Cholesterol levels in BJ CETP siRNA cells; format: cell-based, human; conditions: treated with PL or AP or left untreated
[6] = system: BJ cells; experiment: BJ cell morphology on treatment (lipid raft staining experiment); format: cell-based, human
[7] = system: MCF-7 CETP siRNA cells; experiment: MMP, caspase-3/7 activity and apoptosis in CETP knockdown MCF-7 cells; format: cell-based, human; conditions: for caspases-3/7 activity / increase of level of apoptosis: 10 μM PL or AP; for caspases-3/7 activity: CETP knockdown; for increase of level of apoptosis: MCF-7 CETP siRNA cells; for reduction in MMP: 10 μM, CETP knockdown compared to Ctrl siRNA cells
Protocol: FIG. 10: The effect of CETP mRNA silencing on MMP (A), Capase-3/7 activity (B) and apoptosis in MCF-7 (C) and BJ (D) untransfected, cntl siRNA and CETP knockout cells after treatment with 10 μM PL or AP. Values represent the means±SD of three independent experiments.
FIG. 12: The effect of CETP mRNA knockout on Capase-3/7 activity (A) and apoptosis (B) in MCF-7 cntl siRNA and CETP knockout cells after treatment with 25 μM tamoxifen for 24 h. Values represent the means±SD of three independent experiments.
Since, as shown above, CETP is required for optimal growth of MCF-7 cells, we further hypothesized that CETP may help cancer cell to resist/escape apoptotic signals thus preventing cell death. Several apoptotic markers such as MOMP, phosphatidylserine exposure and caspase-3/7 activity were tested to establish a link between CETP and apoptosis.
Next, we intended to see if CETP silencing increased sensitivity of MCF-7 cells to apoptosis.
To test if effect of CETP knockout on apoptosis in MCF-7 is limited to AP, we treated the CETP knockout MCF-7 cells with tamoxifen (a known first line drug for breast cancer treatment). […] This observation was not limited to PL and AP as similar observations were made in CETP knockdown cells treated with tamoxifen (FIG. 12).

[8] = biological target: T1, CETP (Homo sapiens, UniProt P11597); experiment: Thermal shift assay (TSA) in MCF-7 cells; format: binding; conditions: 10 μM, two hours, 56° C. to 70° C.; untreated decreases around 64° C.
T1 construct: endogenous in cells; host or cells: MCF-7
T1 sequence (P11597 18-493): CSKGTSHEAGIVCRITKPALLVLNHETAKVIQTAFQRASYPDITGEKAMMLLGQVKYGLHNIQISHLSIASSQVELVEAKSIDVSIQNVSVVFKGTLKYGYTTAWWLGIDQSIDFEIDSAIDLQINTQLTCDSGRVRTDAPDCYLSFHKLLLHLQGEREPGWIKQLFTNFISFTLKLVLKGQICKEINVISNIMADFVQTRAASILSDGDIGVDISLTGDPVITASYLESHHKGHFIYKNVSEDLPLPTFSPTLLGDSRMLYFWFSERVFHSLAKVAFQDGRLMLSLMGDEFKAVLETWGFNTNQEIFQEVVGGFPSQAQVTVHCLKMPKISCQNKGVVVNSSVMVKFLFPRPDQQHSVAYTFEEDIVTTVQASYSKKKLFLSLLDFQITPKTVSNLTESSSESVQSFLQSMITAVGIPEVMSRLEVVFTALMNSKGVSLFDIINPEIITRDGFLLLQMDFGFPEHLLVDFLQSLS
Protocol: FIG. 14: Illustration of the amount of stabilized CETP protein in the presence of compounds using TSA. MCF-7 cells were left untreated (Untx) and were treated with 10 μM of AP/PL for two hours. TSA was performed using temperature range 56° C. to 70° C. with 2° C. intervals. The western blotting was performed after the assay and CETP was detected. The experiment was performed in duplicate.
Thermal shift assay (TSA) captures the drug protein binding using the fact that the thermostability of the protein is changed after ligand binding. We did three runs of TSA [20] to identify direct binding of AP with CETP (FIG. 14). […] Further studies are needed to study the effects of thermostability on function of CETP.

[9] = 2 mg/kg PL, 5 mg/kg AP, 21 days

CC(=O)Oc1cccc2c1C(=O)C=C(C)C2=O [AP, Acetyl Plumbagin]
pro-caspase 9 levels [1]: reduced
ratio of Bax and Bcl2 [1]: alterations
reduction of pro-caspase 7, time observed [1]: reduced at 12 h
PARP-1 cleavage [1]: substantially reduced from full length to the cleaved fragment
expression of DNA damage marker pH2AX [1]: significantly increased
CETP protein levels in serum [2]: upregulated
total cholesterol in knock-out cells versus control siRNA cells [3]: did not show results any different
survival of animals [4, 9]: survived
reduction of ALT activity ([4]; 5 mg/kg AP): 36%
reduction of AST activity ([4]; 5 mg/kg AP): 7%
body weight ([4]; 5 mg/kg AP, 21 days): remained unaffected
cholesterol levels [5]: No significant changes
effects on BJ cell morphology ([6]; treated with PL or AP): no adverse effects
caspases-3/7 activity [7]: significantly increased
increase of level of apoptosis [7]: 10%
reduction in MMP [7]: 17%
thermostability of CETP protein [8]: more stable even at 70 °C

CC1=CC(=O)c2c(O)cccc2C1=O [PL, 5-hydroxy-2-methyl-1,4-naphthoquinone, reference compound]
pro-caspase 9 levels [1]: reduced
ratio of Bax and Bcl2 [1]: alterations
reduction of pro-caspase 7, time observed [1]: as early as 2 and 6 h
PARP-1 cleavage [1]: substantially reduced from full length to the cleaved fragment
expression of DNA damage marker pH2AX [1]: significantly increased
CETP protein levels in serum [2]: slightly reduced
total cholesterol in knock-out cells versus control siRNA cells [3]: did not show results any different
ALT activity ([4]; 2 mg/kg PL): increased
AST activity ([4]; 2 mg/kg PL): increased
survival of animals [4, 9]: one mouse died
mice succumbed to treatment due to toxicity ([4]; 5 mg/kg PL, within four to six days): 8 mice
cholesterol levels [5]: No significant changes
effects on BJ cell morphology [6]: no adverse effects
caspases-3/7 activity [7]: significantly increased
increase of level of apoptosis [7]: 10%
reduction in MMP [7]: 13%
thermostability of CETP protein [8]: more stable even at 70 °C
